Earlier results, collected in article PMC9516332 (Frontiers in Oncology, 2022).

Tests used:
[1] = biological target: panel of 255 wild-type kinases (Homo sapiens, UniProt O95819); details: kinase HGK; 1 µmol/L single concentration; ref DOI: 10.1371/journal.pone.0092146; cited from earlier work
[2] = biological target: panel of 255 wild-type kinases (Homo sapiens, UniProt P05771); details: kinase PKCβ1; 1 µmol/L single concentration; ref DOI: 10.1371/journal.pone.0092146; cited from earlier work
[3] = biological target: panel of 255 wild-type kinases (Homo sapiens, UniProt P08069); details: kinase IGF1R; 1 µmol/L single concentration; ref DOI: 10.1371/journal.pone.0092146; cited from earlier work
[4] = biological target: panel of 255 wild-type kinases (Homo sapiens, UniProt P09619); details: kinase PDGFRβ; 1 µmol/L single concentration; ref DOI: 10.1371/journal.pone.0092146; cited from earlier work
[5] = biological target: panel of 255 wild-type kinases (Homo sapiens, UniProt P11309); details: kinase PIM1; 1 µmol/L single concentration; ref DOI: 10.1371/journal.pone.0092146; cited from earlier work
[6] = biological target: panel of 255 wild-type kinases (Homo sapiens, UniProt P29597); details: kinase TYK2; 1 µmol/L single concentration; ref DOI: 10.1371/journal.pone.0092146; cited from earlier work
[7] = biological target: panel of 255 wild-type kinases (Homo sapiens, UniProt P31751); details: AKT2 kinase assay; 1 µmol/L single concentration; ref DOI: 10.1371/journal.pone.0092146; cited from earlier work
[8] = biological target: panel of 255 wild-type kinases (Homo sapiens, UniProt P49759); details: kinase CLK1; 1 µmol/L single concentration; ref DOI: 10.1371/journal.pone.0092146; cited from earlier work
[9] = biological target: panel of 255 wild-type kinases (Homo sapiens, UniProt P53779); details: kinase JNK3; 1 µmol/L single concentration; ref DOI: 10.1371/journal.pone.0092146; cited from earlier work
[10] = biological target: panel of 255 wild-type kinases (Homo sapiens, UniProt P54756); details: kinase EPHA5; 1 µmol/L single concentration; ref DOI: 10.1371/journal.pone.0092146; cited from earlier work
[11] = biological target: panel of 255 wild-type kinases (Homo sapiens, UniProt Q13153); details: PAK1; 1 µmol/L single concentration; ref DOI: 10.1371/journal.pone.0092146; cited from earlier work
[12] = biological target: T1, panel of 255 wild-type kinases (Homo sapiens, UniProt Q13237); details: CGK2 kinase assay; 1 µmol/L single concentration; ref DOI: 10.1371/journal.pone.0092146; cited from earlier work
T1 sequence (Q13237 1-762): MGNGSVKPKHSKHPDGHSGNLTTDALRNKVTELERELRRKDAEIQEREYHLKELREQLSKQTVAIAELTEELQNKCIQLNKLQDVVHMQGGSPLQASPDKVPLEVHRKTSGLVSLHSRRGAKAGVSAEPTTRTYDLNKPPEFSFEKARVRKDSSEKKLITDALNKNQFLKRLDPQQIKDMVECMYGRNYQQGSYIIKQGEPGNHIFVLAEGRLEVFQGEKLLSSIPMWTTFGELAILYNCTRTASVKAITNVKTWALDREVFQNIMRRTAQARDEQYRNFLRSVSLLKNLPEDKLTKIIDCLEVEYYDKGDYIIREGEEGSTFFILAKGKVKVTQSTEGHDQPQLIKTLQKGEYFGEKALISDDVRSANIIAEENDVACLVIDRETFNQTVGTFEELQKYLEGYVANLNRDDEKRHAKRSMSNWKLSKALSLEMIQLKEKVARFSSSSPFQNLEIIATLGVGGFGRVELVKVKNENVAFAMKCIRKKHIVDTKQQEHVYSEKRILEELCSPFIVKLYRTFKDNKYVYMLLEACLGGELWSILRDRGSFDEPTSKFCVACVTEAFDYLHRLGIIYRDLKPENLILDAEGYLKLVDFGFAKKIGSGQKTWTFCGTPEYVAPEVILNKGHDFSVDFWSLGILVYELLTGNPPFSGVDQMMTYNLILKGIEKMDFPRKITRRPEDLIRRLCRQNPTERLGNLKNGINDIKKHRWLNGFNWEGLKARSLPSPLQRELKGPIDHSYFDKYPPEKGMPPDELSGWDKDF

[13] = biological target: panel of 255 wild-type kinases (Homo sapiens, UniProt Q14012); details: CaMK1α kinase assay; 1 µmol/L single concentration; ref DOI: 10.1371/journal.pone.0092146; cited from earlier work
[14] = biological target: panel of 255 wild-type kinases (Homo sapiens, UniProt Q16654); details: kinase PDHK4; 1 µmol/L single concentration; ref DOI: 10.1371/journal.pone.0092146; cited from earlier work
[15] = biological target: panel of 255 wild-type kinases (Homo sapiens, UniProt Q96SB4); details: kinase SRPK1; 1 µmol/L single concentration; ref DOI: 10.1371/journal.pone.0092146; cited from earlier work
[16] = biological target: panel of 255 wild-type kinases (Homo sapiens, UniProt Q9HBH9); details: MNK2; 1 µmol/L single concentration; ref DOI: 10.1371/journal.pone.0092146; cited from earlier work
[17] = biological target: panel of 255 wild-type kinases (Homo sapiens, UniProt Q9Y243); details: AKT3 kinase assay; 1 µmol/L single concentration; ref DOI: 10.1371/journal.pone.0092146; cited from earlier work
[18] = biological target: panel of 255 wild-type kinases (Homo sapiens, UniProt Q9Y6E0); details: MST3; 1 µmol/L single concentration; ref DOI: 10.1371/journal.pone.0092146; cited from earlier work

## CCCS(=O)(=O)Nc1ccc(F)c(C(=O)c2c[nH]c3ncc(-c4ccc(Cl)cc4)cc23)c1F [vemurafenib]
[1]
  %-inhibition at 1 µmol/L, HGK: 26%
[2]
  %-inhibition at 1 µmol/L, PKCβ1: -3.81%
[3]
  %-inhibition at 1 µmol/L, IGF1R: 10%
[4]
  %-inhibition at 1 µmol/L, PDGFRβ: 33%
[5]
  %-inhibition at 1 µmol/L, PIM1: -3.41%
[6]
  %-inhibition at 1 µmol/L, TYK2: 6%
[7]
  %-inhibition AKT2: -3%
[8]
  %-inhibition at 1 µmol/L, CLK1: 5%
[9]
  %-inhibition at 1 µmol/L, JNK3: 2.85%
[10]
  %-inhibition at 1 µmol/L, EPHA5: 14%
[11]
  %-inhibition, PAK1: -5%
[12]
  %-inhibition CGK2: -2.26%
[13]
  %-inhibition CaMK1α: -3.18%
[14]
  %-inhibition at 1 µmol/L, PDHK4: -1.4%
[15]
  %-inhibition at 1 µmol/L, SRPK1: 2%
[16]
  %-inhibition, MNK2: 27%
[17]
  %-inhibition AKT3: -0.678%
[18]
  %-inhibition, MST3: -1.73%
